Results from US8455397B2, “Penoxsulam as a turfgrass, vineyard and orchard floor herbicide” (Dow AgroSciences, LLC, priority 2005, dated 2013).

How the values were obtained:
yellow nutsedge (CYPES) [1] = assay: Granule carrier comparison, pre-emergence greenhouse study; type: in vivo, Cypres esculentus L.; settings: pre-emergent greenhouse
Procedure: (§1) Greenhouse and field studies evaluated the effect of two granule carriers and two particles sizes on the postemergent broadleaf activity of penoxsulam. The two carriers were a 46-0-0 and 28-4-12 fertilizer blend and the particle sizes averaged 0.75 mm and 2.15 mm.
(§2) Greenhouse studies were applied both post and pre-emergence to broadleaf weeds and sedge reared from seed or nutlet in 12.7″ (32.25 cm) by 8.8″ (22.35 cm) flats of a loam soil. Particle size and carrier were evaluated post emergence, carrier comparisons with the smaller particle size of 0.75 was evaluated pre-emergence. Stage of growth of species at post emergence application: PLAMA and TAROF in the 3 to 5 leaf stage, TRFRE in the 3rd tri-foliate stage and CYPES in the 3 to 4 leaf stage. Post emergence trial design was a replicated block, one species per flat, 3 replicate flats per treatment. Granule treatments were uniformly applied to individual flats on an area basis using a common hand-shaker method. Post emergence applications were made to the flat covering both soil and misted foliage. Trial was sub-irrigated daily, and watered over the top 1 time per week starting 7 days after application to simulate a natural rainfall event. Active weed growth was maintained throughout the study period. Weed control of each species in the post emergence study was assessed at 2, 3 and 4 weeks after treatment. Pre-emergence trial design was 2 species per flat, 4 replicate flats, block design. Pre-emergence applications were made to the soil surface using a common hand shaker method on an area basis. Overhead irrigation was maintained throughout the trial. Weed control of each species in the pre-emergence study was assessed at 2, 3, 4 and 5 weeks after application. Control was determined visually by comparing treated and untreated flats and scored on a 0 to 100 percent scale where 0 corresponds to no control and 100 corresponds to complete kill.

common purslane (POROL) = assay: Pre-emergence weed nursery field study; type: in vivo, Portulaca oleracea; settings: weed nursery in the field, 27 Days After Application
Procedure: (§3) Field studies were conducted in a non-fumigated weed nursery trial. Weed species were planted in single strips with a row planter at 36 centimeter spacing. Plot size was 3.05×9.2 meters, 4 replicate plots per treatment. Weed species were seeded at appropriate depths and later the same day pre-emergent applications were made to the soil surface. Liquid applications were made using a backpack sprayer calibrated to deliver 187 liters per hectare (L/ha). Applications were made in Fresno, Calif. in June. Sprinkler irrigation was applied at regular intervals throughout study period. Control of each weed species in the study site was made 4 weeks after treatment. Control was determined visually by comparing treated and untreated weeds and scored on a 0 to 100 percent scale where 0 corresponds to no control and 100 corresponds to complete kill or no emergence.

[2] = system: Cyperus esculentus (CYPES); assay: Post emergence synergy greenhouse study, penoxsulam + commercial turf granules; type: in vivo; settings: 27 Days After Application
Procedure: Post emergence greenhouse studies were conducted by applying a 0.14% w/w (weight for weight) penoxsulam loaded urea granule alone and in combination with commercial turf granules. The loading for the commercial granules is listed below Table XI. Greenhouse studies were applied on a kilogram of product per hectare basis (KG PR/Ha) post emergence to broadleaf weeds and sedge reared from seed or nutlet in 12.7″ (32.25 cm) by 8.8″ (22.35 cm) flats of a loam soil. Trial design was replicated block, one species per flat, 4 replicate flats per treatment. Post emergence applications were made to the flat covering both soil and misted foliage using a common hand-shaker method distributing the samples uniformly over the flat. Trial was sub-irrigated daily, and watered over the top 1 time per week starting 7 days after application to simulate a natural rainfall event. Active weed growth was maintained throughout the study period. Weed control was assessed at 2, 3 and 4 weeks after treatment. Control was determined visually by comparing treated and untreated flats and scored on a 0 to 100 percent scale where 0 corresponds to no control and 100 corresponds to complete kill.

yellow nutsedge (CYPES) [3] = assay: Pre-emergence weed nursery field study; type: in vivo, Cypres esculentus L.; settings: weed nursery in the field, 27 Days After Application
Procedure: as §3

[4] = system: broadleaf plantain (PLAMA); assay: Granule carrier/particle size, post emergence greenhouse study; type: in vivo, Plantago major L.; settings: postemergent greenhouse
Procedure: as §1, §2

[5] = system: pennywort (dollarweed) (HYDSS); assay: Postemergent granule herbicides, turfgrass field studies; type: in vivo, Hydrocotyle spp; settings: Table III, 1 site
Procedure: (§4) Field studies were conducted in established turfgrass sites containing a natural population of target broadleaf weeds. Replicated trials, containing a minimum of three replications and having individual plots ranging in size from 25 to 50 ft. sq (2.3 to 4.6 square meters), were initiated in the late spring when turf and weeds were actively growing. Granule treatments were uniformly applied to individual plots using a common hand-shaker method. Applications were made in the early morning when dew was present. Natural rainfall and supplemental irrigation were used to maintain healthy turf and active weed growth throughout the study period. Control of each weed species in the study site was made at 2, 4 and 8 weeks after treatment. Control was determined visually by comparing treated and untreated weeds and scored on a 0 to 100 percent scale where 0 corresponds to no control and 100 corresponds to complete kill.

white clover (TRFRE) = assay: Granule carrier/particle size, postemergent field study; type: in vivo, Trifolium repens L.
Procedure: as §1, §4

[6] = carrier 28-4-12, particle size 0.75 mm, 5.6 gai/Ha
[7] = carrier 28-4-12, particle size 0.75 mm, 11.2 gai/Ha
[8] = carrier 28-4-12, particle size 0.75 mm, 22.4 gai/Ha
[9] = carrier 46-0-0, particle size 0.75 mm, 5.6 gai/Ha
[10] = carrier 46-0-0, particle size 0.75 mm, 11.2 gai/Ha
[11] = carrier 46-0-0, particle size 0.75 mm, 22.4 gai/Ha
[12] = carrier 28-4-12, particle size 2.15 mm, 11.2 gai/Ha
[13] = carrier 28-4-12, particle size 2.15 mm, 22.4 gai/Ha
[14] = carrier 46-0-0, particle size 2.15 mm, 11.2 gai/Ha
[15] = carrier 46-0-0, particle size 2.15 mm, 22.4 gai/Ha

## COc1cnc(OC)n2nc(NS(=O)(=O)c3c(OCC(F)F)cccc3C(F)(F)F)nc12 [Penoxsulam, 2-(2,2-difluoroethoxy)-N-(5,8-dimethoxy[1,2,4]triazolo[1,5-c]-pyrimidin-2-yl)-6-(trifluoromethyl)benzenesulfonamide]
Yellow nutsedge (CYPES) [1]; [6]
  Percent Weed Control 35 DAA: 60%
Yellow nutsedge (CYPES) [1]; [7]
  Percent Weed Control 35 DAA: 70%
Yellow nutsedge (CYPES) [1]; [8]
  Percent Weed Control 35 DAA: 89%
Yellow nutsedge (CYPES) [1]; [9]
  Percent Weed Control 35 DAA: 37%
Yellow nutsedge (CYPES) [1]; [10]
  Percent Weed Control 35 DAA: 57%
Yellow nutsedge (CYPES) [1]; [11]
  Percent Weed Control 35 DAA: 79%
Common purslane (POROL); 8.8 gai/Ha
  Pre-emergent Percent Mean Control: 96%
Common purslane (POROL); 17.5 gai/Ha
  Pre-emergent Percent Mean Control: 97%
Common purslane (POROL); 35 gai/Ha
  Pre-emergent Percent Mean Control: 99%
Common purslane (POROL); 70 gai/Ha
  Pre-emergent Percent Mean Control: 100%
[2]; 2.4 kg Product/Ha of 0.14% w/w urea granule
  % Control Component A: 16%
[2]; 8.0 kg Product/Ha of 0.14% w/w urea granule
  % Control Component A: 44%
Yellow nutsedge (CYPES) [3]; 8.8 gai/Ha
  Pre-emergent Percent Mean Control: 69%
Yellow nutsedge (CYPES) [3]; 17.5 gai/Ha
  Pre-emergent Percent Mean Control: 81%
Yellow nutsedge (CYPES) [3]; 35 gai/Ha
  Pre-emergent Percent Mean Control: 88%
Yellow nutsedge (CYPES) [3]; 70 gai/Ha
  Pre-emergent Percent Mean Control: 94%
[4]; [6]
  Percent Weed Control 27-30 DAA: 35%
[4]; [7]
  Percent Weed Control 27-30 DAA: 75%
[4]; [8]
  Percent Weed Control 27-30 DAA: 96%
[4]; carrier 28-4-12, particle size 2.15 mm, 5.6 gai/Ha
  Percent Weed Control 27-30 DAA: 0%
[4]; [12]
  Percent Weed Control 27-30 DAA: 27%
[4]; [13]
  Percent Weed Control 27-30 DAA: 38%
[4]; [9]
  Percent Weed Control 27-30 DAA: 47%
[4]; [10]
  Percent Weed Control 27-30 DAA: 77%
[4]; [11]
  Percent Weed Control 27-30 DAA: 97%
[4]; carrier 46-0-0, particle size 2.15 mm, 5.6 gai/Ha
  Percent Weed Control 27-30 DAA: 8%
[4]; [14]
  Percent Weed Control 27-30 DAA: 15%
[4]; [15]
  Percent Weed Control 27-30 DAA: 50%
[5]; 4 Weeks After Treatment, 22.4 gai/Ha
  Mean Percent Weed Control: 50%
[5]; 4 Weeks After Treatment, 44.9 gai/Ha
  Mean Percent Weed Control: 97%
[5]; 4 Weeks After Treatment, 67.3 gai/Ha
  Mean Percent Weed Control: 98%
[5]; 4 Weeks After Treatment, 100 gai/Ha
  Mean Percent Weed Control: 100%
[5]; 8 Weeks After Treatment, 22.4 gai/Ha
  Mean Percent Weed Control: 40%
[5]; 8 Weeks After Treatment, 44.9 gai/Ha
  Mean Percent Weed Control: 93%
[5]; 8 Weeks After Treatment, 67.3 gai/Ha
  Mean Percent Weed Control: 84%
[5]; 8 Weeks After Treatment, 100 gai/Ha
  Mean Percent Weed Control: 97%
White clover (TRFRE); [7]
  Percent Weed Control 26-27 DAA: 80%
White clover (TRFRE); [8]
  Percent Weed Control 26-27 DAA: 97%
White clover (TRFRE); [12]
  Percent Weed Control 26-27 DAA: 48%
White clover (TRFRE); [13]
  Percent Weed Control 26-27 DAA: 70%
White clover (TRFRE); [10]
  Percent Weed Control 26-27 DAA: 82%
White clover (TRFRE); [11]
  Percent Weed Control 26-27 DAA: 95%
White clover (TRFRE); [14]
  Percent Weed Control 26-27 DAA: 34%
White clover (TRFRE); [15]
  Percent Weed Control 26-27 DAA: 78%
